Laboratory results reported in ChEMBL document CHEMBL1138228, “N,N'-Bisbenzylidenebenzene-1,4-diamines and N,N'-Bisbenzylidenenaphthalene-1,4-diamines as Sirtuin Type 2 (SIRT2) Inhibitors” (J Med Chem, 2006).

Assays:
[1] = biological target: T1, NAD-dependent protein deacetylase sirtuin-2 (Homo sapiens) (UniProt Q8IXJ6); assay: Inhibition of SIRT2 at 200 uM
T1 sequence (whole entry): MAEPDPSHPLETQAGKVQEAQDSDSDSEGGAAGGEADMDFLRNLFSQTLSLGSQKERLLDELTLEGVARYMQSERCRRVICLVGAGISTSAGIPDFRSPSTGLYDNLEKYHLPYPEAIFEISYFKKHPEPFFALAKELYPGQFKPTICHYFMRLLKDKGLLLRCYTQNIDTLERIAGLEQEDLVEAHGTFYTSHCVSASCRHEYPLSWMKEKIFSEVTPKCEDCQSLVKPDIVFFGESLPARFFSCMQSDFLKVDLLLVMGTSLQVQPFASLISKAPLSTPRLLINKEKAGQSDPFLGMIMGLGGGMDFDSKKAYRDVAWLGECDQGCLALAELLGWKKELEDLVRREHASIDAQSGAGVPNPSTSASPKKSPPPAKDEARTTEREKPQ

[2] = biological target: T2, NAD-dependent protein deacetylase sirtuin-2 (Homo sapiens, UniProt Q8IXJ6); assay: Inhibition of SIRT2
T2 sequence (Q8IXJ6 whole entry): T1 sequence (whole entry)

Compound | inhibition [1] | IC50 [2]
COc1ccccc1/C=N/c1ccc(/N=C/c2ccccc2OC)c2ccccc12 | 34% | –
Oc1cccc(CNc2ccc(NCc3cccc(O)c3)cc2)c1 | 8% | –
C(=N\c1ccc(/N=C/c2ccccc2)c2ccccc12)/c1ccccc1 | 18% | –
Oc1ccc(CNc2ccc(NCc3ccc(O)cc3)cc2)cc1 | 14% | –
c1ccc(CNc2ccc(NCc3ccccc3)cc2)cc1 | 21% | –
Oc1ccccc1/C=N/c1ccc(/N=C/c2ccccc2O)c2ccccc12 | 38% | –
Oc1ccc(/C=N/c2ccc(/N=C/c3ccc(O)cc3)c3ccccc23)cc1 | 64% | 137 µM
Oc1ccccc1CNc1ccc(NCc2ccccc2O)cc1 | 27% | –

Second part, the compound after the results:

inhibition [1] | IC50 [2] | Compound
13% | – | Oc1ccc(/C=N/c2ccc(/N=C/c3ccc(O)c(O)c3)cc2)cc1O
17% | – | COc1ccc(/C=N/c2ccc(/N=C/c3ccc(OC)cc3)c3ccccc23)cc1
56% | 58.4 µM | Oc1ccccc1/C=N/c1ccc(/N=C/c2ccccc2O)cc1
12% | – | Oc1cccc(/C=N/c2ccc(/N=C/c3cccc(O)c3)cc2)c1
53% | 196 µM | Oc1cccc(/C=N/c2ccc(/N=C/c3cccc(O)c3)c3ccccc23)c1
13% | – | COc1ccccc1/C=N/c1ccc(/N=C/c2ccccc2OC)cc1
35% | – | C(=N\c1ccc(/N=C/c2ccccc2)cc1)/c1ccccc1
20% | – | COc1cccc(/C=N/c2ccc(/N=C/c3cccc(OC)c3)c3ccccc23)c1
20% | – | COc1cccc(/C=N/c2ccc(/N=C/c3cccc(OC)c3)cc2)c1
22% | – | Oc1ccc(/C=N/c2ccc(/N=C/c3ccc(O)cc3)cc2)cc1
